biological target: human HPK1 (MAP4K1) (Homo sapiens (Human), UniProt Q92918); experiment: HPK1 IC50 Assay; type: biochemical; settings: recombinant HPK1 kinase domain 0.15 nM, synthetic peptide substrate STK S1, 3 hours at 25° C., time-resolved fluorescence energy transfer; geometric mean of multiple experiments
Procedure: The enzymatic activity of human HPK1 (MAP4K1) was monitored in a biochemical assay in the presence or absence of compounds and using a synthetic peptide substrate. An increase in phosphorylation of the peptide by HPK1 was indicative of its kinase activity.
Recombinant HPK1 kinase domain produced via baculovirus infection of insect cells was obtained from Proteros (Proteros Biostructures #PR-0322) and was pre-activated in the presence of 2 mM ATP (Sigma-Aldrich, cat #GE27-2056-01) and 2 mM magnesium chloride for 16 hours at 4° C. The protein reaction mixture was then loaded to a desalting column (Thermo Fisher Scientific, Cat #89889) to remove excess ATP. HPK1 was eluted with buffer containing 20 mM Tris (2-Amino-2-(hydroxymethyl)propane-1,3-diol) pH 8.0, 150 mM NaCl, 2 mM dithiothreitol and 5% glycerol, and was frozen at −80° C. for later use. HPK1 dual phosphorylation was confirmed by mass spectrometry.
Ten nanoliters of test compounds dissolved in DMSO at various concentrations were dispensed into a 384-well ProxiPlate (PerkinElmer #6008289). Five microliters of a solution of recombinant HPK1 diluted in HPK1 kinase assay buffer (50 mM BES [N,N-Bis(2-hydroxyethyl)-2-aminoethanesulfonic acid], pH 7.0; 10 mM magnesium chloride; 0.01% Triton X-100; 1 mM dithiothreitol; 0.01% bovine serum albumin; 0.1 mM sodium orthovanadate) was added to the compound-containing plate and was incubated for 15 minutes at 25° C. Five microliters of a mixture of ATP (Sigma-Aldrich #A6559) and peptide substrate STK Si (Cisbio #61ST1BLC) diluted in HPK1 kinase assay buffer was then added to start the reaction. Final concentrations were 0.15 nM for HPK1, […], and 1 […]. The reaction mixture was incubated at 25° C. for 3 hours and was stopped with the addition of 10 μl of an EDTA (Ethylenediaminetetraacetic acid)-containing detection buffer (Cisbio #62SDBRDF) supplemented with Europium cryptate-labeled anti-phospho-serine/threonine antibodies (Cisbio #62ST1PEJ) and XL665-labeled streptavidin (Cisbio #610SAXLG). The mixture was incubated for 16 hours at room temperature and peptide phosphorylation was measured by time-resolved fluorescence energy transfer (665 nm/620 nm) on an Envision plate reader (PerkinElmer).
Data in Table 1 were normalized based on positive (staurosporine) and negative (DMSO) controls. Least squares curve fittings were performed using a four-parameter variable slope nonlinear regression model. IC50 is defined as the concentration of compound required to inhibit 50% of maximum phosphorylation. IC50 values from multiple experiments were averaged by geometric mean and the standard deviation was calculated.

Sequence of human HPK1 (MAP4K1) (Q92918 17-274): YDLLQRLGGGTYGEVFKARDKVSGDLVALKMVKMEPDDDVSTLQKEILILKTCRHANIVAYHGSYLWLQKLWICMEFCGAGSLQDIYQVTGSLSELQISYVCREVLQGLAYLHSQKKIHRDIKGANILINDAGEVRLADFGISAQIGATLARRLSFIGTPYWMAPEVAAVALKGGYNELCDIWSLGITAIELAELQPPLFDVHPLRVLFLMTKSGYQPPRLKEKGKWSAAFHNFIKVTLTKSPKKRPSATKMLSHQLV

Row | SMILES | IC50
1 | Cc1ncc(/C=C2\C(=O)Nc3c(F)cc(-c4cnc5c(c4)NCCO5)c(C)c32)[nH]1 [Compound C5, (Z)-5-(2,3-dihydro-H-pyrido[2,3-b][1,4]oxazin-7-yl)-7-fluoro-4-methyl-3-((2-methyl-TH-imidazol-5-yl)methylene)indolin-2-one] | 7430 pM
2 | Cc1c(-c2cc(F)c3c(c2C)/C(=C/c2cc(C#N)c[nH]2)C(=O)N3)cnc2c1NCCO2 [Compound C12, (Z)-5-((7-fluoro-4-methyl-5-(8-methyl-2,3-dihydro-1H-pyrido[2,3-b][1,4]oxazin-7-yl)-2-oxoindolin-3-ylidene)methyl)-1H-pyrrole-3-carbonitrile] | 670 pM
3 | Cc1c(-c2ccc3c(c2)/C(=C/c2ccn[nH]2)C(=O)N3)cnc2c1NCCO2 [Compound C30, (Z)-3-((1H-pyrazol-5-yl)methylene)-5-(8-methyl-2,3-dihydro-1H-pyrido[2,3-b][1,4]oxazin-7-yl)indolin-2-one] | 970 pM
4 | Cc1c(-c2cc(F)c3c(c2)/C(=C/c2cnc(C4CC4)[nH]2)C(=O)N3)cnc2c1NCCO2 [Compound C35, (Z)-3-((2-cyclopropyl-1H-imidazol-5-yl)methylene)-7-fluoro-5-(8-methyl-2,3-dihydro-1H-pyrido[2,3-b][1,4]oxazin-7-yl)indolin-2-one] | 50 pM
5 | Cc1c[nH]c(/C=C2\C(=O)Nc3c(C)cc(-c4cnc5c(c4C)NCCO5)cc32)c1 [Compound C24, (Z)-7-methyl-3-((4-methyl-1H-pyrrol-2-yl)methylene)-5-(8-methyl-2,3-dihydro-1H-pyrido[2,3-b][1,4]oxazin-7-yl)indolin-2-one] | 2930 pM
6 | CCN(CC)CCNC(=O)c1c(C)[nH]c(/C=C2\C(=O)Nc3c(F)cc(-c4cnc5c(c4C)NCCO5)cc32)c1C [Compound C9, (Z)—N-(2-(diethylamino)ethyl)-5-((7-fluoro-5-(8-methyl-2,3-dihydro-1H-pyrido[2,3-b][1,4]oxazin-7-yl)-2-oxoindolin-3-ylidene)methyl)-2,4-dimethyl-1H-pyrrole-3-carboxamide] | 90 pM
7 | Cc1c(-c2ccc3c(c2)/C(=C/c2ccc[nH]2)C(=O)N3)cnc2c1NCCO2 [Compound C29, (Z)-3-((1H-pyrrol-2-yl)methylene)-5-(8-methyl-2,3-dihydro-1H-pyrido[2,3-b][1,4]oxazin-7-yl)indolin-2-one] | 50 pM
8 | Cc1c[nH]c(/C=C2\C(=O)Nc3c(F)cc(-c4cnc5c(c4C)NCCO5)c(C)c32)c1 [Compound C13, (Z)-7-fluoro-4-methyl-3-((4-methyl-H-pyrrol-2-yl)methylene)-5-(8-methyl-2,3-dihydro-1H-pyrido[2,3-b][1,4]oxazin-7-yl)indolin-2-one] | 510 pM
9 | CCN(CC)CCNC(=O)c1c(C)[nH]c(/C=C2\C(=O)Nc3ccc(-c4cnc5c(c4C)NCCO5)cc32)c1C [Compound C16, (Z)—N-(2-(diethylamino)ethyl)-2,4-dimethyl-5-((5-(8-methyl-2,3-dihydro-1H-pyrido[2,3-b][1,4]oxazin-7-yl)-2-oxoindolin-3-ylidene)methyl)-1H-pyrrole-3-carboxamide] | 50 pM

Continued, values first:

Row | IC50 | SMILES
10 | 420 pM | Cc1c(-c2ccc3c(c2)/C(=C/c2c[nH]c4ccccc24)C(=O)N3)cnc2c1NCCO2 [Compound C70, (Z)-3-((1H-indol-3-yl)methylene)-5-(8-methyl-2,3-dihydro-1H-pyrido[2,3-b][1,4]oxazin-7-yl)indolin-2-one]
11 | 280 pM | Cc1c(-c2ccc3c(c2)/C(=C/c2nc4ccccc4[nH]2)C(=O)N3)cnc2c1NCCO2 [Compound C59, (Z)-3-((1H-benzo[d]imidazol-2-yl)methylene)-5-(8-methyl-2,3-dihydro-1H-pyrido[2,3-b][1,4]oxazin-7-yl)indolin-2-one]
12 | 510 pM | Cc1c(-c2cc(F)c3c(c2C)/C(=C/c2cc4ccccc4[nH]2)C(=O)N3)cnc2c1NCCO2 [Compound C56, (Z)-3-((1H-indol-2-yl)methylene)-7-fluoro-4-methyl-5-(8-methyl-2,3-dihydro-1H-pyrido[2,3-b][1,4]oxazin-7-yl)indolin-2-one]
13 | 690 pM | Cc1cc2c(cc1-c1cnc3c(c1C)NCCO3)/C(=C/c1cc3ccncc3[nH]1)C(=O)N2 [Compound C37, (Z)-3-((1H-pyrrolo[2,3-c]pyridin-2-yl)methylene)-6-methyl-5-(8-methyl-2,3-dihydro-1H-pyrido[2,3-b][1,4]oxazin-7-yl)indolin-2-one]
14 | 1030 pM | Cc1c(-c2cc(F)c3c(c2C)/C(=C/c2cn[nH]c2)C(=O)N3)cnc2c1NCCO2 [Compound C65, (Z)-3-((1H-pyrazol-4-yl)methylene)-7-fluoro-4-methyl-5-(8-methyl-2,3-dihydro-1H-pyrido[2,3-b][1,4]oxazin-7-yl)indolin-2-one]
15 | 190 pM | Cc1c(-c2cc3c(cc2Cl)NC(=O)/C3=C\c2cc3ccccc3[nH]2)cnc2c1NCCO2 [Compound C50, (Z)-3-((1H-indol-2-yl)methylene)-6-chloro-5-(8-methyl-2,3-dihydro-1H-pyrido[2,3-b][1,4]oxazin-7-yl)indolin-2-one]
16 | 50 pM | Cc1c(-c2ccc3c(c2)/C(=C/c2cc4ncccc4[nH]2)C(=O)N3)cnc2c1NCCO2 [Compound C57, (Z)-3-((1H-pyrrolo[3,2-b]pyridin-2-yl)methylene)-5-(8-methyl-2,3-dihydro-1H-pyrido[2,3-b][1,4]oxazin-7-yl)indolin-2-one]
17 | 160 pM | Cc1c(-c2cc3c(cc2F)NC(=O)/C3=C\c2cc3cnccc3[nH]2)cnc2c1NCCO2 [Compound C49, (Z)-3-((1H-pyrrolo[3,2-c]pyridin-2-yl)methylene)-6-fluoro-5-(8-methyl-2,3-dihydro-1H-pyrido[2,3-b][1,4]oxazin-7-yl)indolin-2-one]
18 | 160 pM | Cc1c(-c2cc3c(cc2Cl)NC(=O)/C3=C\c2cc3cnccc3[nH]2)cnc2c1NCCO2 [Compound C48, (Z)-3-((1H-pyrrolo[3,2-c]pyridin-2-yl)methylene)-6-chloro-5-(8-methyl-2,3-dihydro-1H-pyrido[2,3-b][1,4]oxazin-7-yl)indolin-2-one]
19 | 110 pM | Cc1c(-c2ccc3c(c2)/C(=C/c2cc4ccncc4[nH]2)C(=O)N3)cnc2c1NCCO2 [Compound C58, (Z)-3-((1H-pyrrolo[2,3-c]pyridin-2-yl)methylene)-5-(8-methyl-2,3-dihydro-1H-pyrido[2,3-b][1,4]oxazin-7-yl)indolin-2-one]
20 | 50 pM | Cc1c(-c2cc(F)c3c(c2)/C(=C/c2cc4ncccc4[nH]2)C(=O)N3)cnc2c1NCCO2 [Compound C46, (Z)-3-((1H-pyrrolo[3,2-b]pyridin-2-yl)methylene)-7-fluoro-5-(8-methyl-2,3-dihydro-1H-pyrido[2,3-b][1,4]oxazin-7-yl)indolin-2-one]
21 | 50 pM | Cc1c(-c2ccc3c(c2)/C(=C/c2cc4ccccc4[nH]2)C(=O)N3)cnc2c1NCCO2 [Compound C62, (Z)-3-((1H-indol-2-yl)methylene)-5-(8-methyl-2,3-dihydro-1H-pyrido[2,3-b][1,4]oxazin-7-yl)indolin-2-one]
22 | 1130 pM | Cc1c(-c2cnc3c(c2)/C(=C/c2cc4cnccc4[nH]2)C(=O)N3)cnc2c1NCCO2 [Compound C47, (Z)-3-((1H-pyrrolo[3,2-c]pyridin-2-yl)methylene)-5-(8-methyl-2,3-dihydro-1H-pyrido[2,3-b][1,4]oxazin-7-yl)-1,3-dihydro-2H-pyrrolo[2,3-b]pyridin-2-one]
